Source: PubChem BioAssay (NCI)
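Following 48 hours of exposure in 96-well plates, responses at five concentrations were used to interpolate endpoints linearly. GI50 marks 50% less growth. TGI marks complete inhibition of growth.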

Assays:
Assay in all cases: DTP human tumour cell line panel, 48 h
K-562 leukemia = test system: K-562 leukemia
HL-60(TB) leukemia = test system: HL-60(TB) leukemia
NCI-H522 lung = test system: NCI-H522 lung
CCRF-CEM leukemia = test system: CCRF-CEM leukemia
OVCAR-3 ovarian = test system: OVCAR-3 ovarian
SF-539 CNS = test system: SF-539 CNS
MDA-MB-231 breast = test system: MDA-MB-231 breast
UACC-62 melanoma = test system: UACC-62 melanoma
SF-268 CNS = test system: SF-268 CNS
HOP-92 NSCLC = test system: HOP-92 NSCLC
OVCAR-5 ovarian = test system: OVCAR-5 ovarian
CAKI-1 renal = test system: CAKI-1 renal
PC-3 prostate = test system: PC-3 prostate
SNB-75 CNS = test system: SNB-75 CNS
NCI-H460 lung = test system: NCI-H460 lung
SK-OV-3 ovarian = test system: SK-OV-3 ovarian
COLO 205 colon = test system: COLO 205 colon
SK-MEL-28 melanoma = test system: SK-MEL-28 melanoma
SF-295 CNS = test system: SF-295 CNS
KM12 colon = test system: KM12 colon
ACHN renal = test system: ACHN renal
OVCAR-8 ovarian = test system: OVCAR-8 ovarian
SN12C renal = test system: SN12C renal
DU-145 prostate = test system: DU-145 prostate

CC(C)(Oc1ccc(/C=C/C(=O)c2ccccc2)cc1)C(=O)Nc1c(Cl)cccc1Cl
TGI (K-562 leukemia): > 100000 nM | TGI (HL-60(TB) leukemia): 23600 nM | TGI (NCI-H522 lung): 9860 nM | TGI (CCRF-CEM leukemia): > 31600 nM

OC(c1cc(-c2ccc(Cl)cc2)nc2c(Cl)cccc12)C1CCCCN1 (centres undefined)
GI50 (OVCAR-3 ovarian): 1810 nM | TGI (OVCAR-3 ovarian): 3350 nM | GI50 (SF-539 CNS): 1700 nM | TGI (SF-539 CNS): 3150 nM | GI50 (MDA-MB-231 breast): 1490 nM | TGI (MDA-MB-231 breast): 3020 nM | GI50 (UACC-62 melanoma): 1690 nM | TGI (UACC-62 melanoma): 3170 nM | GI50 (SF-268 CNS): 1780 nM | TGI (SF-268 CNS): 3400 nM | GI50 (HOP-92 NSCLC): 1020 nM | TGI (HOP-92 NSCLC): 2360 nM | GI50 (OVCAR-5 ovarian): 1660 nM | TGI (OVCAR-5 ovarian): 3260 nM | GI50 (CAKI-1 renal): 1160 nM | TGI (CAKI-1 renal): 2520 nM | GI50 (PC-3 prostate): 1460 nM | TGI (PC-3 prostate): 2910 nM | GI50 (SNB-75 CNS): 1280 nM | TGI (SNB-75 CNS): 2680 nM | GI50 (NCI-H460 lung): 1640 nM | TGI (NCI-H460 lung): 3150 nM | GI50 (SK-OV-3 ovarian): 1760 nM | TGI (SK-OV-3 ovarian): 3210 nM | GI50 (COLO 205 colon): 1700 nM | TGI (COLO 205 colon): 3170 nM | GI50 (SK-MEL-28 melanoma): 1760 nM | TGI (SK-MEL-28 melanoma): 3230 nM | GI50 (SF-295 CNS): 1680 nM | TGI (SF-295 CNS): 3280 nM | GI50 (KM12 colon): 1850 nM | TGI (KM12 colon): 3360 nM | GI50 (ACHN renal): 1530 nM | TGI (ACHN renal): 2880 nM | GI50 (OVCAR-8 ovarian): 2110 nM | TGI (OVCAR-8 ovarian): 4630 nM | GI50 (SN12C renal): 1600 nM | TGI (SN12C renal): 3270 nM | GI50 (DU-145 prostate): 1710 nM | TGI (DU-145 prostate): 3100 nM
